Like-named read-outs stand apart in the source and are kept apart here.

The text below walks through data of patent US8791143B2, “Anthranilic diamide derivatives having cyclic side-chains” (priority 2010, dated 2014).

Data set [1] is described as follows: log P by HPLC on reversed-phase columns (EEC Directive 79/831 Annex V.A8). Format: physicochemical.
For data set [2], the system named is caterpillars of the armyworm (Spodoptera frugiperda). Kind of data set: Spodoptera frugiperda test (SPODFR spray treatment). Format: in vivo. Conditions: Spodoptera frugiperda, 168 h, read-out: activity in % (caterpillars killed).
For data set [3], the system named is larvae of the mustard beetle (Phaedon cochleariae). Kind of data set: Phaedon test (PHAECO spray treatment). Particulars: Phaedon cochleariae, 168 h, read-out: activity in % (beetle larvae killed).
Where [4] appears, read: reversed-phase C18 HPLC column, pH 2.7, HPLC reversed-phase C18, acidic range pH 2.7 (HCOOH), only or first value of the cell, read-out: log P.
Where [5] appears, read: application rate 100 g/ha, after 7 days.

On to `Cc1cc(Cl)cc(C(=O)NC(C)c2ccc(Cl)cc2Cl)c1NC(=O)c1cc(Cn2nnc(C(F)(F)F)n2)nn1-c1ncccc1Cl` (stereo not drawn) [Example 141], for which, in data set [1] (setting [4]), the chromatographic logP worked out at 4.67. Besides, the pest or weed control at 100 g/ha in data set [2] (setting [5]) and in data set [3] was 100% each time.
Consider `Cc1cc(Cl)cc(C(=O)NC(C)c2ccc(Cl)c(Cl)c2)c1NC(=O)c1cc(Cn2nnc(C(F)(F)F)n2)nn1-c1ncccc1Cl` (stereo not drawn) [Example 142], for which the chromatographic logP in data set [1] (setting [4]) came out at 4.58. The pest or weed control at 100 g/ha in data set [2] (setting [5]) and in data set [3] was 100% each time.
Molecule `Cc1cc(Cl)cc(C(=O)NC(C)c2cccc(F)c2)c1NC(=O)c1cc(Cn2nnc(C(F)(F)F)n2)nn1-c1ncccc1Cl` (stereo not drawn) [Example 143] registered a chromatographic logP in data set [1] (pH 2.7, log P) of 4. Moreover, the pest or weed control at 100 g/ha in data set [2] and in data set [3] was 100% throughout.
`Cc1cc(Cl)cc(C(=O)NC(C)c2cc(Cl)ccc2Cl)c1NC(=O)c1cc(Cn2nnc(C(F)(F)F)n2)nn1-c1ncccc1Cl` (stereo not drawn) [Example 144]: in data set [1] (setting [4]), the chromatographic logP came to 4.58. Moreover, the pest or weed control at 100 g/ha in data set [2] (setting [5]) and in data set [3] was 100% throughout.
`Cc1cc(I)cc(C(=O)NCc2ccccc2OC(F)(F)F)c1NC(=O)c1cc(Cn2nnc(C(F)(F)C(F)(F)F)n2)nn1-c1ncccc1Cl` [Example 146]: in data set [1] (setting [4]), the chromatographic logP is 4.84. Further, the pest or weed control at 100 g/ha in data set [2] (setting [5]) and in data set [3] was 100% throughout.
With `Cc1cc(I)cc(C(=O)NCc2ccc(OC(F)(F)F)cc2)c1NC(=O)c1cc(Cn2nnc(C(F)(F)C(F)(F)F)n2)nn1-c1ncccc1Cl` [Example 148], in data set [1] (setting [4]), the chromatographic logP came out at 4.85. Further, the pest or weed control at 100 g/ha in data set [2] (setting [5]) and in data set [3] was 100% throughout.
As to `Cc1cc(I)cc(C(=O)NCc2ccc(OC(F)F)cc2)c1NC(=O)c1cc(Cn2nnc(C(F)(F)C(F)(F)F)n2)nn1-c1ncccc1Cl` [Example 149], in data set [1] (setting [4]), the chromatographic logP came to 4.35. Moreover, the pest or weed control at 100 g/ha in data set [2] (setting [5]) and in data set [3] was 100% each time.
In the case of `Cc1cc(F)cc(C(=O)NCc2ccccc2OC(F)(F)F)c1NC(=O)c1cc(Cn2nnc(C(F)(F)F)n2)nn1-c1ncccc1Cl` [Example 154], in data set [1] (setting [4]), the chromatographic logP was found to be 3.92. The pest or weed control at 100 g/ha in data set [2] (setting [5]) and in data set [3] was 100% throughout.
As for `Cc1cc(F)cc(C(=O)NCc2ccc(OC(F)(F)F)cc2)c1NC(=O)c1cc(Cn2nnc(C(F)(F)F)n2)nn1-c1ncccc1Cl` [Example 155], the chromatographic logP in data set [1] (setting [4]) was found to be 3.92. Further, the pest or weed control at 100 g/ha in data set [2] (setting [5]) and in data set [3] was 100% throughout.
As to `Cc1cc(I)cc(C(=O)NCc2cccc(OC(F)(F)F)c2)c1NC(=O)c1cc(Cn2nnc(C(F)(F)F)n2)nn1-c1ncccc1Cl` [Example 156], the chromatographic logP in data set [1] (setting [4]) is 4.47. In addition, the pest or weed control at 100 g/ha in data set [2] (setting [5]) and in data set [3] was 100% in each case.
Regarding `Cc1cc(I)cc(C(=O)NCc2ccccc2OC(F)F)c1NC(=O)c1cc(Cn2nnc(C(F)(F)C(F)(F)F)n2)nn1-c1ncccc1Cl` [Example 157], in data set [1] (setting [4]), the chromatographic logP is 4.45. Also, the pest or weed control at 100 g/ha in data set [2] (setting [5]) and in data set [3] was 100% throughout.
For `Cc1cc(Cl)cc(C(=O)NCc2ccccc2OC(F)F)c1NC(=O)c1cc(Cn2nnc(C(F)(F)F)n2)nn1-c1ncccc1Cl` [Example 158], in data set [1] (setting [4]), the chromatographic logP was determined as 4. Also, the pest or weed control at 100 g/ha in data set [2] (setting [5]) and in data set [3] was 100% in each case.
Regarding `Cc1cc(Cl)cc(C(=O)NCc2cccc(OC(F)F)c2)c1NC(=O)c1cc(Cn2nnc(C(F)(F)F)n2)nn1-c1ncccc1Cl` [Example 159], the chromatographic logP in data set [1] (setting [4]) was 3.95. For the same molecule, the pest or weed control at 100 g/ha in data set [2] (setting [5]) and in data set [3] was 100% each time.
Take `Cc1cc(Cl)cc(C(=O)NCc2cccc(OC(F)(F)F)c2)c1NC(=O)c1cc(Cn2nnc(C(F)F)n2)nn1-c1ncccc1Cl` [Example 160]: the chromatographic logP in data set [1] (setting [4]) came out at 3.79. Moreover, the pest or weed control at 100 g/ha in data set [2] (setting [5]) and in data set [3] was 100% each time.
Consider `Cc1cc(Cl)cc(C(=O)NCc2ccc(OC(F)F)cc2)c1NC(=O)c1cc(Cn2nnc(C(F)F)n2)nn1-c1ncccc1Cl` [Example 161], for which the chromatographic logP in data set [1] (setting [4]) is 3.42. For the same molecule, the pest or weed control at 100 g/ha in data set [2] (setting [5]) and in data set [3] was 100% in each case.
As to `Cc1cc(C#N)cc(C(=O)NCc2cccc(OC(F)(F)F)c2)c1NC(=O)c1cc(Cn2nnc(C(F)F)n2)nn1-c1ncccc1Cl` [Example 163], the chromatographic logP in data set [1] (setting [4]) was 3.42. The pest or weed control at 100 g/ha in data set [2] (setting [5]) and in data set [3] was 100% in each case.
Turning to `Cc1cc(C#N)cc(C(=O)NCc2ccc(OC(F)(F)F)cc2)c1NC(=O)c1cc(Cn2nnc(C(F)F)n2)nn1-c1ncccc1Cl` [Example 164], the chromatographic logP in data set [1] (setting [4]) came to 3.42. Also, the pest or weed control at 100 g/ha in data set [2] (setting [5]) and in data set [3] was 100% throughout.
With `Cc1cc(C#N)cc(C(=O)NCc2ccc(OC(F)F)cc2)c1NC(=O)c1cc(Cn2nnc(C(F)F)n2)nn1-c1ncccc1Cl` [Example 165], in data set [1] (setting [4]), the chromatographic logP came to 3.04. Also, the pest or weed control at 100 g/ha in data set [2] (setting [5]) and in data set [3] was 100% in each case.
Turning to `Cc1cc(C#N)cc(C(=O)NCc2cccc(OC(F)(F)F)c2)c1NC(=O)c1cc(Cn2nnc(C(F)(F)F)n2)nn1-c1ncccc1Cl` [Example 166], the chromatographic logP in data set [1] (setting [4]) turned out to be 3.91. The pest or weed control at 100 g/ha in data set [2] (setting [5]) and in data set [3] was 100% in each case.
For the molecule `Cc1cc(C#N)cc(C(=O)NCc2ccc(OC(F)(F)F)cc2)c1NC(=O)c1cc(Cn2nnc(C(F)(F)F)n2)nn1-c1ncccc1Cl` [Example 167], the chromatographic logP in data set [1] (setting [4]) turned out to be 3.9. Besides, the pest or weed control at 100 g/ha in data set [2] (setting [5]) and in data set [3] was 100% throughout.
For `Cc1cc(C#N)cc(C(=O)NCc2ccc(OC(F)F)cc2)c1NC(=O)c1cc(Cn2nnc(C(F)(F)F)n2)nn1-c1ncccc1Cl` [Example 168], the chromatographic logP in data set [1] (setting [4]) is 3.49. For the same molecule, the pest or weed control at 100 g/ha in data set [2] (setting [5]) and in data set [3] was 100% in each case.
For the molecule `Cc1cc(F)cc(C(=O)NCc2cccc(OC(F)(F)F)c2)c1NC(=O)c1cc(Cn2nnc(C(F)(F)F)n2)nn1-c1ncccc1Cl` [Example 169], the chromatographic logP in data set [1] (setting [4]) stood at 3.95. The pest or weed control at 100 g/ha in data set [2] (setting [5]) and in data set [3] was 100% each time.
For the molecule `Cc1cc(F)cc(C(=O)NCc2ccc(OC(F)F)cc2)c1NC(=O)c1cc(Cn2nnc(C(F)(F)F)n2)nn1-c1ncccc1Cl` [Example 170], in data set [1] (setting [4]), the chromatographic logP was determined as 3.55. Further, the pest or weed control at 100 g/ha in data set [2] (setting [5]) and in data set [3] was 100% in each case.
As for `Cc1cc(Cl)cc(C(=O)NCc2ccccc2OC(F)F)c1NC(=O)c1cc(Cn2nnc(C(F)F)n2)nn1-c1ncccc1Cl` [Example 175], the chromatographic logP in data set [1] (setting [4]) was 3.47. Besides, the pest or weed control at 100 g/ha in data set [2] (setting [5]) and in data set [3] was 100% throughout.
For `Cc1cc(C#N)cc(C(=O)NCc2cccc(OC(F)F)c2)c1NC(=O)c1cc(Cn2nnc(C(F)F)n2)nn1-c1ncccc1Cl` [Example 178], in data set [1] (setting [4]), the chromatographic logP was 3.08. The pest or weed control at 100 g/ha in data set [2] (setting [5]) was 83%; in data set [3] it was 100%.
In the case of `Cc1cc(C#N)cc(C(=O)NCc2cccc(OC(F)F)c2)c1NC(=O)c1cc(Cn2nnc(C(F)(F)F)n2)nn1-c1ncccc1Cl` [Example 180], in data set [1] (setting [4]), the chromatographic logP is 3.54. In addition, the pest or weed control at 100 g/ha in data set [2] (setting [5]) and in data set [3] was 100% in each case.
Consider `Cc1cc(C#N)cc(C(=O)NCc2ccc3c(c2)OCO3)c1NC(=O)c1cc(Cn2nnc(C(F)(F)F)n2)nn1-c1ccccc1Cl` [Example 182], for which the chromatographic logP in data set [1] (setting [4]) worked out at 3.64. Besides, the pest or weed control at 100 g/ha in data set [2] (setting [5]) turned out to be 83%; in data set [3], 100%.
Turning to `Cc1c(F)ccc(C(=O)NCc2cccc(Cl)c2)c1NC(=O)c1cc(Cn2nnc(C(F)(F)F)n2)nn1-c1ncccc1Cl` [Example 183], the chromatographic logP in data set [1] (pH 2.7, log P) is 3.82. The pest or weed control at 100 g/ha in data set [2] and in data set [3] was 100% each time.
The molecule `Cc1c(F)ccc(C(=O)NCc2ccc(Cl)cc2)c1NC(=O)c1cc(Cn2nnc(C(F)(F)F)n2)nn1-c1ncccc1Cl` [Example 184] yielded a chromatographic logP in data set [1] (pH 2.7, log P) of 3.8. In addition, the pest or weed control at 100 g/ha in data set [2] and in data set [3] was 100% throughout.
As to `Cc1c(F)ccc(C(=O)NCc2ccccc2OC(F)(F)F)c1NC(=O)c1cc(Cn2nnc(C(F)(F)F)n2)nn1-c1ncccc1Cl` [Example 185], the chromatographic logP in data set [1] (setting [4]) worked out at 4.04. Moreover, the pest or weed control at 100 g/ha in data set [2] (setting [5]) and in data set [3] was 100% throughout.
For the molecule `Cc1c(F)ccc(C(=O)NCc2cccc(OC(F)(F)F)c2)c1NC(=O)c1cc(Cn2nnc(C(F)(F)F)n2)nn1-c1ncccc1Cl` [Example 186], the chromatographic logP in data set [1] (setting [4]) turned out to be 4.07. The pest or weed control at 100 g/ha in data set [2] (setting [5]) and in data set [3] was 100% each time.
Turning to `Cc1c(F)ccc(C(=O)NCc2ccc(OC(F)(F)F)cc2)c1NC(=O)c1cc(Cn2nnc(C(F)(F)F)n2)nn1-c1ncccc1Cl` [Example 187], in data set [1] (setting [4]), the chromatographic logP came to 4.05. Besides, the pest or weed control at 100 g/ha in data set [2] (setting [5]) and in data set [3] was 100% each time.
Regarding `Cc1cc(C#N)cc(C(=O)NCc2ccccc2OC(F)(F)F)c1NC(=O)c1cc(Cn2nnc(C(F)(F)F)n2)nn1-c1c(Cl)cccc1Cl` [Example 188], the chromatographic logP in data set [1] (setting [4]) worked out at 4.13. Moreover, the pest or weed control at 100 g/ha in data set [2] (setting [5]) and in data set [3] was 100% each time.
Turning to `Cc1cc(C#N)cc(C(=O)NCc2ccccc2OC(F)F)c1NC(=O)c1cc(Cn2nnc(C(F)(F)F)n2)nn1-c1c(Cl)cccc1Cl` [Example 189], the chromatographic logP in data set [1] (setting [4]) was 3.75. Besides, the pest or weed control at 100 g/ha in data set [2] (setting [5]) and in data set [3] was 100% each time.
